Activity calls are given as the source filed them.
Assays:
[1] = biological target: T1, Replicative DNA helicase DnaB (Mycobacterium tuberculosis, UniProt P9WMR3); assay: DnaB intein splicing inhibitors, dose response, biochemical, cell-free fluorescence (AID 449749); format: functional
T1 sequence (P9WMR3 whole entry): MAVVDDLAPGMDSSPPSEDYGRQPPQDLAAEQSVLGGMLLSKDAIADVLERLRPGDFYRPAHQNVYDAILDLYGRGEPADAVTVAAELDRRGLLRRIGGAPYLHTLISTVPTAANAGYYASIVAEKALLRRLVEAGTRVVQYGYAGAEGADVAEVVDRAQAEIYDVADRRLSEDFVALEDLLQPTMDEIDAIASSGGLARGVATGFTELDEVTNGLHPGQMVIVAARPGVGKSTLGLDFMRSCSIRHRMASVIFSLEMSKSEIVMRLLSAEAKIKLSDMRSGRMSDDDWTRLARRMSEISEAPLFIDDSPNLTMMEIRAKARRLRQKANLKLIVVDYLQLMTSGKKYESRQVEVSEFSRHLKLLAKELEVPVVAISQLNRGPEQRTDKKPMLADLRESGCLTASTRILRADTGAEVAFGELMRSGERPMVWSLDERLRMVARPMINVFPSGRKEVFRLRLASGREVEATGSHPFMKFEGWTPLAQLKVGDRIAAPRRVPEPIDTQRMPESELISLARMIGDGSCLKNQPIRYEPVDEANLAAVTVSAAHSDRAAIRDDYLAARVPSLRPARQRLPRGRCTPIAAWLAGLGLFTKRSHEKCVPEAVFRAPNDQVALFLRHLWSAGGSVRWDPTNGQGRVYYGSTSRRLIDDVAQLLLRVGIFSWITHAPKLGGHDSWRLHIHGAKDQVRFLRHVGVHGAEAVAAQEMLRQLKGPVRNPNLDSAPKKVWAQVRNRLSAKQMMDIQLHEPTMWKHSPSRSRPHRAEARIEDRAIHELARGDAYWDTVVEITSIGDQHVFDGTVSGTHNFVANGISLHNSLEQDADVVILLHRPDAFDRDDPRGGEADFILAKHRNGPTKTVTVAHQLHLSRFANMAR

[2] = biological target: Photoreceptor-specific nuclear receptor (Homo sapiens, UniProt Q9Y5X4); format: functional, cell-based;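 further: CHO-S cells with Gal4-NCOR and VP16-NR2E3 two-hybrid luciferase reporter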
Sequence of Photoreceptor-specific nuclear receptor (Q9Y5X4 whole entry, the tested form may be a part): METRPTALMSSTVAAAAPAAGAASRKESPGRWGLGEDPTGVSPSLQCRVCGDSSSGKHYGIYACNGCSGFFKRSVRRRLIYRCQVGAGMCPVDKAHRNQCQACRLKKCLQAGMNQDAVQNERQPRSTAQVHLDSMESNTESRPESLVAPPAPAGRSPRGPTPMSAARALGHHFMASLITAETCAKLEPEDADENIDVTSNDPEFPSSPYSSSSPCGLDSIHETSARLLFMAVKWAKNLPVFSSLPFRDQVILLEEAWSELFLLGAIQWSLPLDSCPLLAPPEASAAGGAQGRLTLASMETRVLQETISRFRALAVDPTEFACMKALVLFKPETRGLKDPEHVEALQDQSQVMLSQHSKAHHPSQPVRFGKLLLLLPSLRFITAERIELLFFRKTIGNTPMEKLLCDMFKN

[3] = biological target: E3 ubiquitin-protein ligase Mdm2 (Homo sapiens, UniProt Q00987); assay: enhancers of MDM2-luciferase reporter signal, concentration-effect titration, project on inhibitors of MDM2 ubiquitin ligase, cellular assay, luminescent readout, 384-well plate format (AID 1394); format: functional;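 further: MDM2 E3 inhibitors raise luminescence so EC50 is for signal enhancement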
Sequence of E3 ubiquitin-protein ligase Mdm2 (Q00987 whole entry): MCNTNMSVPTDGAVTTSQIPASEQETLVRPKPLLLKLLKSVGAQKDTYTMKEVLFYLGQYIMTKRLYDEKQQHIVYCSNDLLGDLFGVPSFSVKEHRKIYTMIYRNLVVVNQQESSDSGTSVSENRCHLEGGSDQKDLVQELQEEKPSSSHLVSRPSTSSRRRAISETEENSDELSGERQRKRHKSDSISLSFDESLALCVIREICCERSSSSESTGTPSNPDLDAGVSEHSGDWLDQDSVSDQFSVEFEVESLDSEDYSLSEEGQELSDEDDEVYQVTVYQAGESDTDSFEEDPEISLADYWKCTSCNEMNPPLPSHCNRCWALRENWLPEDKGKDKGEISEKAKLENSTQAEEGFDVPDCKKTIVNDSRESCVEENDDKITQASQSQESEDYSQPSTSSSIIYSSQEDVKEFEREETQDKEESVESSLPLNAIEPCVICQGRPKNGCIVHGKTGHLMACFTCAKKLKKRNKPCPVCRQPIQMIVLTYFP

[4] = biological target: T2, Streptokinase A (Streptococcus pyogenes serotype M1, UniProt P10520); assay: S. pyogenes streptokinase expression inhibitors, potency, dose response, plasminogen activation absorbance, OD405 (AID 1914); format: functional, Streptococcus pyogenes M1 GAS;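 further: secreted streptokinase activity via plasminogen activation per viability signal from cell pellet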
T2 sequence (P10520 whole entry): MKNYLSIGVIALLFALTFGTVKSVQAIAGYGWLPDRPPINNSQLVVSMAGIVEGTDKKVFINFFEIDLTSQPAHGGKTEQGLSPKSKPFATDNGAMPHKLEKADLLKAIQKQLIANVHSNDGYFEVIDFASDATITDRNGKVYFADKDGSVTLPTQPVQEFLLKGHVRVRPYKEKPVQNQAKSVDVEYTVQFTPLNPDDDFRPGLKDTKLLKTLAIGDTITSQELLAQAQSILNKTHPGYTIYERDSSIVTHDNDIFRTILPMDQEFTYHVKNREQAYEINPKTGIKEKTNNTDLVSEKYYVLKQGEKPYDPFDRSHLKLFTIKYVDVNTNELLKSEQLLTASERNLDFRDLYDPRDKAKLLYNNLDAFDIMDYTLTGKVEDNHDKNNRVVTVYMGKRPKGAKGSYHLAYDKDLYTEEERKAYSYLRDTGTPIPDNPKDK

[5] = test system: INS1; assay: beta cell apoptosis inhibitors, cytokine rescue, dose response, luminescence, retest (AID 449756); format: functional, cell-based; conditions: Rattus norvegicus;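 further: cell death triggered by IL-1 beta plus TNF-alpha plus IFN-gamma mixture; protective hits raise ATP signal compared with cytokine alone wells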
[6] = biological target: Nonstructural protein 1 (Influenza A virus, UniProt Q194T2); format: functional, Influenza A virus (A/California/07/2009(H1N1))
Sequence of Nonstructural protein 1 (Q194T2 whole entry): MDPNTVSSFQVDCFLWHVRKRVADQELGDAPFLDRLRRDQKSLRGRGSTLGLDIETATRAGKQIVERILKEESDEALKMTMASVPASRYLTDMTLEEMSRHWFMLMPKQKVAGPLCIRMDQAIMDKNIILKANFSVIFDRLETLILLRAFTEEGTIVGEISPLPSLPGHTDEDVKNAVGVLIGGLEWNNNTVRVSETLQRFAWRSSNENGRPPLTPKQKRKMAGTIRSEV

[7] = biological target: T3, Heat shock factor protein 1 (Mus musculus, UniProt P38532); assay: HSF1 potentiators in luciferase reporter cells, confirmation, cell-based, NIH3T3, luminescence, dose retest (AID 435004); format: functional;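 further: stress induced by proteasome inhibitor MG132 added 30 min after compound; luciferase reporter driven by HSF1 response element in NIH3T3 cells; actives raise luminescence as potentiators of the MG132 stress response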
T3 sequence (P38532 whole entry): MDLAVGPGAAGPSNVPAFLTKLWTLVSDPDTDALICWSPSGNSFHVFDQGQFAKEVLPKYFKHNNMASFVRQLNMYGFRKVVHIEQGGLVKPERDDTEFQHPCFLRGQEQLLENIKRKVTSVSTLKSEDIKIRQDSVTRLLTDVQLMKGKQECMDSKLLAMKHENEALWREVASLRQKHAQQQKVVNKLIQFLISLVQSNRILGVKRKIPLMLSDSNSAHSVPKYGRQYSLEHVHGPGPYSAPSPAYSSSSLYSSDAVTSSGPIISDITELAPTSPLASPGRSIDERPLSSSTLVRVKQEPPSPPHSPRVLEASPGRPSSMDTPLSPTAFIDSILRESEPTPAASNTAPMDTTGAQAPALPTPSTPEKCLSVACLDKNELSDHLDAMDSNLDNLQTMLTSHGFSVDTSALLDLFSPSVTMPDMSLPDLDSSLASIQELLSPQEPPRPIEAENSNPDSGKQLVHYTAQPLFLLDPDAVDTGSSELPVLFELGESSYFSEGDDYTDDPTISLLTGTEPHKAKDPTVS

[8] = biological target: T4, Protein RecA (Mycobacterium tuberculosis, UniProt P9WHJ3); assay: Fluorescence Cell-Free Homogeneous Dose Retest to Identify Inhibitors of RecA-Intein Splicing Activity. [Related pubchem assays (depositor defined):AID2097, AID2223, AID489010, AID492950]; format: functional
T4 sequence (P9WHJ3 whole entry): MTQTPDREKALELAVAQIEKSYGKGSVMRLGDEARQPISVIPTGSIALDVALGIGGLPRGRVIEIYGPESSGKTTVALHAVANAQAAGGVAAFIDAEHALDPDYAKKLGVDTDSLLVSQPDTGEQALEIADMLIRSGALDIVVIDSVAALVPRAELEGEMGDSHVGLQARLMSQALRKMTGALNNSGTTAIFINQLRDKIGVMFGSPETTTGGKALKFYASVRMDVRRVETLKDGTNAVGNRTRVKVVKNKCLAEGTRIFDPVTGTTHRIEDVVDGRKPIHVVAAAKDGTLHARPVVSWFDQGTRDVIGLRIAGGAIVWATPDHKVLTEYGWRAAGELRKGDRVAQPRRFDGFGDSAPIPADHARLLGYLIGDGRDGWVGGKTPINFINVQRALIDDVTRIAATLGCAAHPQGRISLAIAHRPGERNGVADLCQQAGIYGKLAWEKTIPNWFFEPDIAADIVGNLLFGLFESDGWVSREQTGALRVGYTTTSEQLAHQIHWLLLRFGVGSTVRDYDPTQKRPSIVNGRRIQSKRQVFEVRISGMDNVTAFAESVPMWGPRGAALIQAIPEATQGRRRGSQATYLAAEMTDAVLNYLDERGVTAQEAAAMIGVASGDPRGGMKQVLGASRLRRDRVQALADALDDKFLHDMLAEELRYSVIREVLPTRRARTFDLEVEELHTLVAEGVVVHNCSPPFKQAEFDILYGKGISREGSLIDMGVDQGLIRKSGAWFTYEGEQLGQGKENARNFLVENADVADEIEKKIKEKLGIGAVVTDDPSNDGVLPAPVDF

[9] = microbe, parasite or virus in culture; format: functional; conditions: Mycobacterium tuberculosis
[10] = test system: Streptococcus sp. 'group A'; assay: growth inhibition of control SK(-) GAS strain, dose response, counter-screen for streptokinase expression inhibitor project, luminescence, kanamycin, BacTiterGlo, confirmation (AID 1900); format: functional, organism-based
[11] = cells; format: functional, cell-based
[12] = test system: Streptococcus; assay: Group A Streptococcus viability loss, dose response, counter-screen for streptokinase expression inhibitor project, luminescence, BacTiterGlo (AID 1915); format: functional, organism-based;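 further: potency for reduction of bacterial viability or growth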
[13] = cells; format: functional, cell-based; remark: listed apart in the source
[14] = biological target: Hepatocyte nuclear factor 4-alpha (Homo sapiens, UniProt P41235); format: functional, cell-based;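 further: biochemical luminescence-based dose-response counterscreen measuring inhibition of HNF4 dimerization, run alongside a screen for blockers of ABHD5–perilipin-5 interaction; split luciferase complementation of HNF4 fusion proteins in cell lysate measuring dimerization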
Sequence of Hepatocyte nuclear factor 4-alpha (P41235 whole entry, the tested form may be a part): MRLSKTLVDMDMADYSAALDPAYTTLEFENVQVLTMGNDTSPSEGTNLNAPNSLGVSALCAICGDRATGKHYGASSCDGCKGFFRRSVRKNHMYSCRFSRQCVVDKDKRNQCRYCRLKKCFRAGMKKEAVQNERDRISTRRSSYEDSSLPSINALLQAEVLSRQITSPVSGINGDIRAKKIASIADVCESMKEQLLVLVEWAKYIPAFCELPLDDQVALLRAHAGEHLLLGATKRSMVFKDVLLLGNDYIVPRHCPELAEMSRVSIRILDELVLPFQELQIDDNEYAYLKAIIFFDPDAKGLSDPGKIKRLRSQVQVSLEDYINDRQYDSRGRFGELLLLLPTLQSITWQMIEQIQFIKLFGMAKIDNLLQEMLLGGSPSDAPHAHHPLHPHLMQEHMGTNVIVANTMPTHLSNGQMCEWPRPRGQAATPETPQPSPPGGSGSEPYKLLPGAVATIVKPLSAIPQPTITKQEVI

[15] = biological target: T5, ATP-dependent translocase ABCB1 (Homo sapiens, UniProt P08183); assay: ABCG2 efflux pump inhibitor potency, dose response, Ig-MXP3 cells, JC-1, flow cytometry, set 2 (AID 504566); format: functional; conditions: read-out: EC50_MICROM_;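 further: flow cytometry median green fluorescence of retained JC-1 dye; potency of efflux pump inhibition measured as rising substrate retention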
T5 sequence (P08183 whole entry): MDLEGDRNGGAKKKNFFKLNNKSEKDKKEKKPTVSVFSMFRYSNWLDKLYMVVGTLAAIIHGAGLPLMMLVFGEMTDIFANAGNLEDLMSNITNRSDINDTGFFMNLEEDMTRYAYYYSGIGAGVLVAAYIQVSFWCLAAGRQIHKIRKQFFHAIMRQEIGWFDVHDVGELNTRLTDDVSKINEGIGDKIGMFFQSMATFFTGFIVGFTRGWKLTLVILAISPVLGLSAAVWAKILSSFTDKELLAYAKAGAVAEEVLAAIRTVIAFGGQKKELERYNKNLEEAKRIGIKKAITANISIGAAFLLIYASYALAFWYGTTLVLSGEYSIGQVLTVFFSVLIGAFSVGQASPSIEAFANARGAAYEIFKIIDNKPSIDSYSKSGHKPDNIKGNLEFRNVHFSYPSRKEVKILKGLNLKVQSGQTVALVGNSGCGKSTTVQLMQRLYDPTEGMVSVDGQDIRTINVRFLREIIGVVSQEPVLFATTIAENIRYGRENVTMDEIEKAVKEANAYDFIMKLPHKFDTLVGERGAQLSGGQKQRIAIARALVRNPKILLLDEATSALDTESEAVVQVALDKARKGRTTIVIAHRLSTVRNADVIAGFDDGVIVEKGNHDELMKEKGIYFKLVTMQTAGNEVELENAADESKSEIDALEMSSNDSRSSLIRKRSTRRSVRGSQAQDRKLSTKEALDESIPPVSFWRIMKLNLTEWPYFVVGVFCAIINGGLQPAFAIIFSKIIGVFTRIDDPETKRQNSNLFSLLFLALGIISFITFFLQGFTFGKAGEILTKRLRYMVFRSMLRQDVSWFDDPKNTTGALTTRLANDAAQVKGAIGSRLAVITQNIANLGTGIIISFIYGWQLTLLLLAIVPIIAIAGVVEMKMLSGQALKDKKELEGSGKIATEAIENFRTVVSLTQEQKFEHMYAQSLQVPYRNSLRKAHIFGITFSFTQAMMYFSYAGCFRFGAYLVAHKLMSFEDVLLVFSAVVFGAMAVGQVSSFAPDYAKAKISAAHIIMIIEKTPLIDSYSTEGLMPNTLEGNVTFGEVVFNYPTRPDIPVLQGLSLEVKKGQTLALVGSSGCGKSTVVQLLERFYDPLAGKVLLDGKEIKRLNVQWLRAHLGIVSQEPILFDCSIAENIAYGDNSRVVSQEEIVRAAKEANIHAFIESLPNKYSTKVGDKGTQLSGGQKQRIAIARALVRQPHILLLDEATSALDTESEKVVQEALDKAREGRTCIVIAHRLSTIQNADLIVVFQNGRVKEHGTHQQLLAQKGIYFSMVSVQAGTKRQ

[16] = biological target: T5, ATP-dependent translocase ABCB1; assay: ABCB1 efflux inhibitor potency, dose response, Jurkat-DNR cells, JC-1, flow cytometry, set 2 (AID 504569); format: functional; conditions: read-out: EC50_MICROM_;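 further: potency of pump inhibitors that raise cellular JC-1 green fluorescence up to the nicardipine level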

Q: Which results are given for Oc1[nH]c2ccccc2c1N=NC(=S)N1CCOCC1?
A: AC50 [1]: > 380 µM (inactive); IC50 [2]: 4.03 µM (active); EC50 [3]: 2.24 µM (not active); EC50 [4]: > 150 µM (not active); AC50 [5]: 2.25 µM (active); IC50 [6]: 4.88 µM (active); EC50 [7]: 3.31 µM (inconclusive); EC50 [8]: 12.9 µM (active); CC50 [9]: 5.25 µM (active); EC50 [10]: 0.271 µM (active); EC50 [11]: > 350 µM (not active); EC50 [12]: 5.64 µM (active); EC50 [13]: 7.37 µM (active)

Q: For Cc1cccc(C)c1NC(=O)C(c1ccc(-c2ccccc2)cc1)n1c(=O)c(-c2ccco2)nc2ccccc21 (stereo unspecified), which IC50 [14] is on record?
A: Its IC50 is 1.34 µM (active).

Q: Which EC50 [15] does the source give for Cc1ccc(-c2cc3nc(C)cc(N4CCN(C(=O)c5ccoc5)CC4)n3n2)cc1 here?
A: Its EC50 is 4.95 µM (active).

Q: What about the EC50 [16] of the same compound?
A: The EC50 was 5.56 µM (active).

— ChEMBL document CHEMBL1201862, “PubChem BioAssay data set” (2004)
